Measurements published in ChEMBL document CHEMBL1136539, “N-ferrocenylmethyl, N'-methyl-2-substituted benzimidazolium iodide salts with in vitro activity against the Leishmania infantum parasite strain L1” (Bioorg Med Chem Lett, 2003).

Test system: Leishmania infantum
Assay: Inhibitory activity against Leishmania infantum parasite L1 strain
Type: functional, organism-based

IC50: < 6.25 µM
SMILES: C[C@@H]1[C@H](O)[C@@H](C)/C=C/C=C/C=C/C=C/C=C/C=C/C=C/[C@H](O[C@@H]2O[C@H](C)[C@@H](O)[C@H](N)[C@@H]2O)C[C@@H]2O[C@](O)(C[C@@H](O)C[C@@H](O)[C@H](O)CC[C@@H](O)C[C@@H](O)CC(=O)O[C@H]1C)C[C@H](O)[C@H]2C(=O)O [AMPHOTERICIN B]
